Data published in ChEMBL document CHEMBL1201862, “PubChem BioAssay data set” (2004).
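Values below derive from 48-hour exposures of cells grown in 96-well plates, with endpoints linearly interpolated between the two concentrations bracketing the appropriate inhibition level. GI50: concentration for 50% inhibition of growth.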 The source made the active and inactive calls. Cut-off read from the data, not from the text of the source: active = GI50 up to about 1.1 µM and inactive = higher.

How the values were obtained:
Test in all cases: DTP human tumour cell line panel, 48 h
SF-539 = tested on: SF-539
SN12C = tested on: SN12C
HOP-62 = tested on: HOP-62
T47D = tested on: T47D
SNB-19 = tested on: SNB-19
SNB-75 = tested on: SNB-75
ACHN = tested on: ACHN
TK-10 = tested on: TK-10
MCF7 = tested on: MCF7
HCC 2998 = tested on: HCC 2998
K562 = tested on: K562
SK-OV-3 = tested on: SK-OV-3
HCT-15 = tested on: HCT-15
786-0 = tested on: 786-0
DU-145 = tested on: DU-145
KM12 = tested on: KM12
HCT-116 = tested on: HCT-116
MOLT-4 = tested on: MOLT-4
CCRF-CEM = tested on: CCRF-CEM
MDA-MB-231 = tested on: MDA-MB-231
M14 = tested on: M14
EKVX = tested on: EKVX
UACC-257 = tested on: UACC-257
Hs-578T = tested on: Hs-578T
COLO 205 = tested on: COLO 205
SR = tested on: SR
OVCAR-8 = tested on: OVCAR-8
SF-295 = tested on: SF-295
SF-268 = tested on: SF-268
Malme-3M = tested on: Malme-3M
IGROV-1 = tested on: IGROV-1
PC-3 = tested on: PC-3
NCI-H460 = tested on: NCI-H460
MDA-MB-435 = tested on: MDA-MB-435
SK-MEL-28 = tested on: SK-MEL-28
A549 = tested on: A549
A498 = tested on: A498
SK-MEL-5 = tested on: SK-MEL-5
OVCAR-4 = tested on: OVCAR-4
RPMI-8226 = tested on: RPMI-8226
OVCAR-3 = tested on: OVCAR-3
NCI-H226 = tested on: NCI-H226
LOX IMVI = tested on: LOX IMVI
BT-549 = tested on: BT-549
HL-60 = tested on: HL-60
SW-620 = tested on: SW-620
SK-MEL-2 = tested on: SK-MEL-2
UACC-62 = tested on: UACC-62
HT-29 = tested on: HT-29
CAKI-1 = tested on: CAKI-1
OVCAR-5 = tested on: OVCAR-5
U-251 = tested on: U-251
NCI-H23 = tested on: NCI-H23
MDA-N = tested on: MDA-N

What does the source list for `Cc1cc(O)c2c(c1O)C(=O)C1=C(C2=O)C(=O)C2C(O)C1C1C(O)CC(O)=C3C(=O)c4c(O)cc(C)c(O)c4C(=O)C321` (centres undefined)?
GI50 (SF-539): 1.94 µM (inactive); GI50 (SN12C): 2.12 µM (inactive); GI50 (HOP-62): 2.48 µM (inactive); GI50 (T47D): 1.24 µM (inactive); GI50 (SNB-19): 1.2 µM (inactive); GI50 (SNB-75): 1.03 µM (active); GI50 (ACHN): 1.35 µM (inactive); GI50 (TK-10): 3.14 µM (inactive); GI50 (MCF7): 2.62 µM (inactive); GI50 (HCC 2998): 1.18 µM (inactive); GI50 (K562): 0.506 µM (active); GI50 (SK-OV-3): 2.24 µM (inactive); GI50 (HCT-15): 2.04 µM; GI50 (786-0): 1.71 µM (inactive); GI50 (DU-145): 1.32 µM (inactive); GI50 (KM12): 0.697 µM (active); GI50 (HCT-116): 0.541 µM (active); GI50 (MOLT-4): 1.52 µM (inactive); GI50 (CCRF-CEM): 0.577 µM (active); GI50 (MDA-MB-231): 2.64 µM (inactive); GI50 (M14): 2.3 µM (inactive); GI50 (EKVX): 1.98 µM (inactive); GI50 (UACC-257): 0.789 µM (active); GI50 (Hs-578T): 0.553 µM (active); GI50 (COLO 205): 0.834 µM (active); GI50 (SR): 2.36 µM (inactive); GI50 (OVCAR-8): 1.06 µM (active); GI50 (SF-295): 0.386 µM (active); GI50 (SF-268): 2.28 µM (inactive); GI50 (Malme-3M): 0.982 µM (active); GI50 (IGROV-1): 2.36 µM (inactive); GI50 (PC-3): 0.628 µM (active); GI50 (NCI-H460): 1.46 µM (inactive); GI50 (MDA-MB-435): 1.36 µM (inactive); GI50 (SK-MEL-28): 1.55 µM (inactive); GI50 (A549): 0.693 µM (active); GI50 (A498): 1.27 µM (inactive); GI50 (SK-MEL-5): 1.65 µM (inactive); GI50 (OVCAR-4): 6.04 µM (inactive); GI50 (RPMI-8226): 0.164 µM (active); GI50 (OVCAR-3): 1.3 µM (inactive); GI50 (NCI-H226): 0.885 µM (active); GI50 (LOX IMVI): 1.57 µM (inactive); GI50 (BT-549): 3.66 µM (inactive); GI50 (HL-60): 1.1 µM (active); GI50 (SW-620): 1.45 µM (inactive); GI50 (SK-MEL-2): 1.73 µM (inactive); GI50 (UACC-62): 1.12 µM (active); GI50 (HT-29): 0.555 µM (active); GI50 (CAKI-1): 1.75 µM (inactive); GI50 (OVCAR-5): 3.62 µM (inactive); GI50 (U-251): 0.658 µM (active); GI50 (NCI-H23): 2.73 µM (inactive); GI50 (MDA-N): 1.44 µM (inactive)
